# “Also recorded” adds a separate entry of the source. Where two headings read alike, the source gives them in different places.
# Columns and labels:
# [1] = test system: anthrax lethal toxin (LF-PA), RAW264.7 cells; assay type: cell-based, mouse
# [2] = test system: host lysosomal cathepsin B; details: cited from earlier work
# [3] = test system: diphtheria toxin, C32 human melanoma cell line; assay type: cell-based
# [4] = biological target: purified human cathepsin B (Homo sapiens, UniProt P07858); assay type: biochemical; details: 4, 8, 16, 33, 66 uM, without drug pre-incubation (FIG. 16)
# cathepsin B [5] = biological target: T1, cathepsin B (Mus musculus, UniProt P10605); assay type: cell-based; details: RAW264.7, 4-66 uM, 1 hour before lysis (FIG. 17)
# cathepsin B [6] = biological target: T1, cathepsin B; assay type: biochemical; details: RAW264.7 lysate, 4-66 uM (FIG. 18)
# Ebola virus = details: cited from earlier work
# endosomal acidification = details: cited from earlier work
# Ebola virus (Kikwit) = test: microbe, parasite or virus in culture; assay type: cell-based; details: Zaire ebolavirus, HeLa, 48 h
# [7] = test system: anthrax toxin (12 μg LF + 40 μg PA); design: species or system Sprague-Dawley rats; details: rat, in vivo
# caspase-1 = assay type: cell-based, mouse
# MEK2 = assay type: cell-based, mouse
# LF = LF (Bacillus anthracis, UniProt P15917); assay type: biochemical
# PA+FP59, RAW264.7 cells = assay type: cell-based, mouse
# PA = assay type: cell-based, mouse
# acidic organelles = assay type: cell-based, mouse; details: RAW264.7, AQ 1 hour, 500 ng/ml PA 1 hour
# cathepsin B [8] = biological target: cathepsin B (Homo sapiens, UniProt P07858); assay type: binding
# [9] = test system: Respiratory syncytial virus (RSV): Strain A-2; test: microbe, parasite or virus in culture; assay type: cell-based; details: human respiratory syncytial virus, HEp-2
# [10] = test system: Clostridium difficile Toxin B, RAW264.7 cells
# [11] = test system: Human Cytomegalovirus (CMV Strain AD169); details: Human Cytomegalovirus assay
# in vitro [12] = test: in vitro
# in vitro [13] = details: human
# in vitro [14] = details: human; remark: listed apart in the source
# Chikungunya virus (CHIV) = test: microbe, parasite or virus in culture; details: HFF-1
# T1 sequence (P10605 80-333): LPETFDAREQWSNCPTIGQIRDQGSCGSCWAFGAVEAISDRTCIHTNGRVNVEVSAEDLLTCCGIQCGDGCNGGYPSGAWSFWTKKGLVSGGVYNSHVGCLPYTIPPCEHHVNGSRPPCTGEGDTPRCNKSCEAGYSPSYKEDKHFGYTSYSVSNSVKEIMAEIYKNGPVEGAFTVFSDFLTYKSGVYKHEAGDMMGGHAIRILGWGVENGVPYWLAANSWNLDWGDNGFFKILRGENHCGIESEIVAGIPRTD
# Sequence of LF (P15917 34-809 limits assumed): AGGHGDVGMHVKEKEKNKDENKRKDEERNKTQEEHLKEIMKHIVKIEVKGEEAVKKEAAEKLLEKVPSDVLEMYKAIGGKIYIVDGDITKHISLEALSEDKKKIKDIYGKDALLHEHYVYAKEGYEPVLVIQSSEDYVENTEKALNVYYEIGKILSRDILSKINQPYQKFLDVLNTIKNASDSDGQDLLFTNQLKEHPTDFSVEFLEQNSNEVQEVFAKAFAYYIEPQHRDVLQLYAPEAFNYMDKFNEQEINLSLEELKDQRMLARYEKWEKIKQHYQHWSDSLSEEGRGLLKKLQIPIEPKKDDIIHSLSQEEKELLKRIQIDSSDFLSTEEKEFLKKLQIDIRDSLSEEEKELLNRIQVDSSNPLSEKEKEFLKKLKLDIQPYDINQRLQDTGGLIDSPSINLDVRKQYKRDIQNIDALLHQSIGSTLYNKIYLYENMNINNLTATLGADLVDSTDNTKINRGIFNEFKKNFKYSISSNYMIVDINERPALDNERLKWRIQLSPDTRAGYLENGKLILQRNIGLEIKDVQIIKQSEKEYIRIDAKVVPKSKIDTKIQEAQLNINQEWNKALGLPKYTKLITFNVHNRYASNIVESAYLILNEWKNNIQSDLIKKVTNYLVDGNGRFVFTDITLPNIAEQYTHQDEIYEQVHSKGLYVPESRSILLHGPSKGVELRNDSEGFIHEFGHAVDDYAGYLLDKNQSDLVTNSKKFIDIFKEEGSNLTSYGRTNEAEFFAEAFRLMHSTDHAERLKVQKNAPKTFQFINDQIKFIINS
molecule,measurement,setting,value
C=C[C@H]1C[N@@]2CC[C@H]1C[C@@H]2[C@@H](O)c1ccnc2ccccc12 [Cinchonine],protection of host cells against anthrax toxin killing (cell survival),[1],"none of the other quinoline-containing antimalarial compounds, Cinchonine, Primaquine, and Quinidine, from JHCCL were active"
CA-074,effect of cathepsin B inhibition on cellular sensitivity to LF-PA,[2],reduction of cellular sensitivity to LF-PA
C=C[C@H]1C[N@@]2CC[C@H]1C[C@@H]2[C@@H](O)c1ccnc2ccc(OC)cc12 [Quinidine],protection of host cells against anthrax toxin killing (cell survival),[1],"none of the other quinoline-containing antimalarial compounds, Cinchonine, Primaquine, and Quinidine, from JHCCL were active"
COc1cc(NC(C)CCCN)c2ncccc2c1 (stereo not drawn) [Primaquine],protection of host cells against anthrax toxin killing (cell survival),[1],"none of the other quinoline-containing antimalarial compounds, Cinchonine, Primaquine, and Quinidine, from JHCCL were active"
"CCN(CC)CCCC(C)Nc1ccnc2cc(Cl)ccc12 (stereo not drawn) [CQ, Chloroquine]",multiplex hit in JHCCL screen: inhibition of anthrax and diphtheria toxin cell killing,[3],inhibited anthrax and diphtheria toxins
same,"inhibition of cathepsin B activity, purified human cathepsin B",[4],weaker inhibitors of cathepsin B activity
same,cathepsin B enzymatic activity in cells pre-treated with drug,cathepsin B [5],weaker inhibitors of cathepsin B activity
same,cathepsin B activity in protein lysate from cells not exposed to drugs prior to lysis,cathepsin B [6],weaker inhibitors of cathepsin B activity
same,inhibition of Ebola virus pathogenicity in cells,Ebola virus,inhibit Ebola virus pathogenicity in cells
same,endosomal acidification,endosomal acidification,prevent endosomal acidification
"CCNCc1cc(Nc2ccnc3cc(Cl)ccc23)ccc1O [DEAQ, N-Desethyl Amodiaquine]",protection of host cells against anthrax toxin killing (cell survival),[1],increased survival
same,"inhibition of cathepsin B activity, purified human cathepsin B",[4],directly inhibit cathepsin B activity in a dose dependent manner
same,cathepsin B enzymatic activity in cells pre-treated with drug,cathepsin B [5],lost cathepsin B enzymatic activity in a dose dependent manner
same,cathepsin B activity in protein lysate from cells not exposed to drugs prior to lysis,cathepsin B [6],inhibited cathepsin B activity
same,EC50,Ebola virus (Kikwit),3.6 µM
"CCN(CC)Cc1cc(Nc2ccnc3cc(Cl)ccc23)ccc1O [AQ, Amodiaquine]",protection of host cells against anthrax toxin killing (cell survival),[1],increased survival; also recorded: completely protect
same,sensitivity of host cells to PA83+LF versus PA63+LF,[1],equally reduces sensitivity of host cells to both PA83+LF and PA63+LF treatments
same,multiplex hit in JHCCL screen: inhibition of anthrax and diphtheria toxin cell killing,[3],inhibited anthrax and diphtheria toxins
same,survival of C32 cells exposed to diphtheria toxin,[3],increase survival
same,clinical signs of toxin challenge,[7],all of the animals in that group displayed classical signs of having undergone a toxin challenge
same,survival and toxin-associated symptoms,[7],survived; also recorded: protected all of the rats; also recorded: all survived without displaying toxin-associated symptoms
same,active caspase-1 (FLICA fluorescence) after LF-PA,caspase-1,not detected
same,cleavage of MEK2 by LF in cells (immunoblot),MEK2,completely prevented this effect
same,proteolytic activity of LF on MAPKK peptide (emission at 523 nm),LF,does not block the proteolytic activity of LF
same,sensitivity of cells to PA+FP59,"PA+FP59, RAW264.7 cells",less sensitive to treatment with PA+FP59
same,binding of PA83 to cells and proteolytic processing of PA to PA63,PA,did not block binding of PA83 to cells or block proteolytic processing of PA to generate PA63
same,cell-associated Lysosensor fluorescence (endosomal acidification),acidic organelles,markedly decreased cell-associated Lysosensor fluorescence
same,"inhibition of cathepsin B activity, purified human cathepsin B",[4],directly inhibit cathepsin B activity in a dose dependent manner
same,cathepsin B enzymatic activity in cells pre-treated with drug,cathepsin B [5],lost cathepsin B enzymatic activity in a dose dependent manner
same,cathepsin B activity in protein lysate from cells not exposed to drugs prior to lysis,cathepsin B [6],inhibited cathepsin B activity
same,binding to cathepsin B (STD difference spectrum),"cathepsin B [8]; 2 mM AQ, 20 μM cathepsin B",binding to the enzyme
same,"STD effect, atom H4",cathepsin B [8]; relative to the H4 atom (100%),100%
same,"STD effect, atom H5",cathepsin B [8]; relative to the H4 atom (100%),97%
same,EC50,Ebola virus (Kikwit),3.8 µM
same,EC50,[9],32 µM
same,survival of RAW264.7 macrophages exposed to Clostridium difficile Toxin B,[10],increase survival
same,CC50,[11],> 60 µM
same,inhibition of Ebola virus pathogenicity in cells,Ebola virus,inhibit Ebola virus pathogenicity in cells
same,CC50,in vitro [12],31 µM
same,CC50,in vitro [13],50 µM
same,CC50,in vitro [14],> 50 µM
same,EC50,Chikungunya virus (CHIV),18.3 µM
"CCNCCCC(C)Nc1ccnc2cc(Cl)ccc12 (stereo not drawn) [DECQ, Desethyl-Chloroquine]","inhibition of cathepsin B activity, purified human cathepsin B",[4],weaker inhibitors of cathepsin B activity
same,cathepsin B enzymatic activity in cells pre-treated with drug,cathepsin B [5],weaker inhibitors of cathepsin B activity
same,cathepsin B activity in protein lysate from cells not exposed to drugs prior to lysis,cathepsin B [6],weaker inhibitors of cathepsin B activity

# Source: US10039758B2 (priority 2014, dated 2018)
